The target of series [1] is Mitogen-activated protein kinase 8 (Homo sapiens, UniProt P45983). Kind of series: Inhibition of JNK1-mediated ATF2 phosphorylation after 1 hr by ELISA.
The test system of series [2] is A549. Briefly: Antiproliferative activity against human A549 cells after 72 hrs by WST8 assay. The following applies: A549, 72 h. In kind it is functional, cell-based.
The target of series [3] is Receptor-type tyrosine-protein kinase FLT3 (Homo sapiens) (UniProt P36888). Kind of series: Inhibition of FLT3 at 1 uM.
The test system of series [4] is T1, Receptor-type tyrosine-protein kinase FLT3 (Homo sapiens), P36888 [D835Y].
T1 sequence (whole entry): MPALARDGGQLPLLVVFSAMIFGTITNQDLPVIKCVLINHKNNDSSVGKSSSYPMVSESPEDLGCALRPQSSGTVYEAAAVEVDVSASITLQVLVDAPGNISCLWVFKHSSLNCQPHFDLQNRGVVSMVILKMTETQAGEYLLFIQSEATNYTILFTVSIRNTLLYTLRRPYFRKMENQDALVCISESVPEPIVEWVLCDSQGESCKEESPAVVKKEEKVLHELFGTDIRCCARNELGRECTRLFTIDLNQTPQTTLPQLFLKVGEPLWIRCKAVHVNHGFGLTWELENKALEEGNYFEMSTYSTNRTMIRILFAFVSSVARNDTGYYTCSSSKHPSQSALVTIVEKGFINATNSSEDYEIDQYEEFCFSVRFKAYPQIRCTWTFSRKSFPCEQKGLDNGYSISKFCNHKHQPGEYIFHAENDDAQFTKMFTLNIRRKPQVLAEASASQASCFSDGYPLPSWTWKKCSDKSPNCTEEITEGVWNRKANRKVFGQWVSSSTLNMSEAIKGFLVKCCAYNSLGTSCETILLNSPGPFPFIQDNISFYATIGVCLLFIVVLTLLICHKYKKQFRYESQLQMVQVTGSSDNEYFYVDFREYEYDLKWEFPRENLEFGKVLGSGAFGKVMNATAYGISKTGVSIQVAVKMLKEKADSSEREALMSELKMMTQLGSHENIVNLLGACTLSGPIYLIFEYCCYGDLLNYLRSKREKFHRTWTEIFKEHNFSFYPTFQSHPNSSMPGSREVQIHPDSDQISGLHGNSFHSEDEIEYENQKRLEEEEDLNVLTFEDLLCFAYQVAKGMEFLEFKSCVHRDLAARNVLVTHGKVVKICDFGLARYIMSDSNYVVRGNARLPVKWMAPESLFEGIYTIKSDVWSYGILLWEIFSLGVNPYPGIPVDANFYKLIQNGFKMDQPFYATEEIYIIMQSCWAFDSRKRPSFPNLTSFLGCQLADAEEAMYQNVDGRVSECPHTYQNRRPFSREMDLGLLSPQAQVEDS
Briefly: Inhibition of FLT3 D835Y mutant at 1 uM.

Series [5] can be described thus: Cmax in mouse at 25 mg/kg, po. It is filed as ADME, organism-based. Further details: dose 25 mg/kg, route oral. The following applies: in vivo.
Series [6] can be described thus: Tmax in mouse at 25 mg/kg, po. It is filed as ADME, organism-based. Further details: dose 25 mg/kg, route oral. As to conditions: in vivo.
Series [7] in a line: AUC in mouse at 25 mg/kg, po. In kind it is ADME, organism-based. Further details: dose 25 mg/kg, route oral. As to conditions: plasma.
Series [8] concerns A549. Kind of series: Antitumor activity against human A549 cells xenografted in po dosed BALB/cA Jcl-nu/nu mouse assessed as tumor growth inhibition administered QD for 19 days. It is filed as functional, organism-based. In general terms: Xenograft models place foreign cells or tissue in a host animal.
Series [9] relates to A549. Briefly: Antitumor activity against human A549 cells xenografted in BALB/cA Jcl-nu/nu mouse assessed as tumor growth inhibition at 100 mg/kg, po administered QD for 19 days relative to vehicle-treated control. The following applies: 456 h, read-out: TGI.
In another series the test system is Mus musculus. Briefly: Toxicity in BALB/cA Jcl-nu/nu mouse xenografted with human A549 cells assessed as body weight loss at 100 mg/kg, po administered QD for 19 days. It is filed as organism-based. Also noted: dose 100 mg/kg, route oral. The following applies: in vivo, 456 h.

Results on six molecules are retold here after ChEMBL document CHEMBL2086293, “Diaminopyridine-based potent and selective mps1 kinase inhibitors binding to an unusual flipped-Peptide conformation” (ACS Med Chem Lett, 2012).

Each structure is given as a SMILES string.

Sequence of Mitogen-activated protein kinase 8 (P45983 whole entry): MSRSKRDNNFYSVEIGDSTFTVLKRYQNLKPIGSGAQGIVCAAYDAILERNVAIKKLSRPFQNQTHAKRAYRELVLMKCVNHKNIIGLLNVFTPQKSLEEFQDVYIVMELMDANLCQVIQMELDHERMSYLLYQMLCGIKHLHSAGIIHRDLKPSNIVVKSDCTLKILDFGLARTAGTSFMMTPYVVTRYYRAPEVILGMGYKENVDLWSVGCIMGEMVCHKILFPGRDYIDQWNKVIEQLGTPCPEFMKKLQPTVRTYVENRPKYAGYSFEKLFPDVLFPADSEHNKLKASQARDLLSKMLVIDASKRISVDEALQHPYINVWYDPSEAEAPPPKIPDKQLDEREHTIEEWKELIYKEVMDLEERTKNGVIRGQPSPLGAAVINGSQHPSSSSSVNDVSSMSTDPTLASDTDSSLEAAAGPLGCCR

Take `CC(C)(C)Nc1nc(Nc2ccc(C(N)=O)cc2)cc(N)c1C#N`: the IC50 (in general, the midpoint of a concentration-inhibition curve) in series [1] worked out at 231 nM; with A549 [2], 840 nM. In addition, the inhibition (commonly the share of the control response that was lost under treatment) in [3] was 50%; in series [4], 86%. For the same molecule, in [5], the concentration peaked (Cmax) at 3540 ng/mL. The Tmax (usually the time at which the peak concentration occurs) in series [6] was found to be 15 min. In addition, the AUC – broadly, the area under the concentration-time curve, a measure of exposure – in series [7] came to 6600 ng·h/mL. For the same molecule, the TGI result with A549 [8] is “Dose-dependent effect”. Further, the inhibition in vivo at 100 mg/kg in the series with A549 [9] came out at 47%. In the series with Mus musculus, the Activity entry is “Non-toxic”.

In [1], `CCOc1nc(C(=O)NCc2ccccc2)cc(N)c1C#N` yielded an IC50 of 350 nM.

In turn, `CCOc1nc(NC(=O)Cc2ccccc2)cc(N)c1C#N` gave an IC50 in series [1] of 260 nM.

For `CCOc1nc(Nc2ccc(C(N)=O)cc2)cc(N)c1C#N`, the IC50 in series [1] came out at 190 nM; with A549 [2], 9500 nM.

The molecule `CCOc1nc(Nc2ccccc2)cc(N)c1C#N` showed an IC50 in series [1] of 1040 nM.

As for `CCOc1nc(NCCc2ccccc2)cc(N)c1C#N`, the IC50 in series [1] is above 100000 nM.
